Assay results taken from patent publication US20260226493A1, “HERBICIDE RESISTANT PLANTS” (SYNGENTA CROP PROTECTION AG, priority 2023, published 2026).
“And” between values parts separate entries of the source, which are not always exact repeats. Identical values can stand only once.

What was measured:
[1] = test system: D4596 (Arabidopsis thaliana BIO3-BIO1 F348C) containing tobacco plants; test: Visual herbicide damage score on transgenic tobacco D4596 (pCMP AtBioDA F348C); type: in vivo; details: 600 gai/ha; 7 DAT; each table row is one D4596 transgenic plant
Text: Populations of transgenic tobacco comprising 20-30 transgenic events per plant transformation constructs were generated as described in Example 1. These lines were clonally propagated and 1 clone per event was sprayed with 600 g ai/ha compound L or A+0.2% Genapol X080 with a spray volume of 200 L/Ha (“g ai/ha” refers to grams of active compound per hectare).
Herbicidal damage was visually assessed across the population and a herbicide damage score given at 7, 14 and 21 days. A score of 0 indicates no visible damage or stunting whereas a score of 100 indicates a complete death of the plant. 20 transgenic events (i.e. individual transgenic plants) from each GM tobacco line were transplanted to soil 1 week prior to spraying with BIO3-BIO1inhibiting compounds. WT tobacco was included as a control.
To determine if overexpression of variants detailed in Example 7 confer resistance to BIO3-BIO1 inhibiting compounds when expressed in plants, GM tobacco lines were produced using the methods in Example 1 and tested with BIO3-BIO1 inhibiting compounds.
Transgenic tobacco plants expressing the Arabidopsis thaliana BIO3-BIO1 variants C388D (SEQ ID NO:26), P421L(SEQ ID NO:41), F348C (SEQ ID NO:28), G700S (SEQ ID NO:39), W392S (SEQ ID NO:70) and the Zea mays BIO3-BIO1 variant C372D (SEQ ID NO:324). Populations of transgenic tobacco were sprayed and assessed as in Example 2

[2] = test system: Arabidopsis thaliana BIO3-BIO1 (BioDA) mutants; test: BIO3-BIO1 mutant enzyme activity in the presence of herbicide, percentage inhibition (fluorometric DAPA assay); type: biochemical
Procedure, shortened: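 Percentage inhibition compares activity at one of three herbicide concentrations against DMSO, from o-phthalaldehyde-derivatised DAPA fluorescence (ex 410, em 470 nm). Purified N-His BIO3-BIO1 variants (50 nM, E. coli-expressed) saw herbicide 10 min at 20 °C in pH 8.6 EPPS buffer, then 20 μM KAPA plus 100 μM spermidine for 75 min at 20 °C.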

CCOC(=O)c1nn(-c2ccc3c(c2)OC(F)(F)C(F)(F)O3)c2cccc(C(C)=O)c2c1=O [Compound A, ethyl 5-acetyl-4-oxo-1-(2,2,3,3-tetrafluoro-1,4-benzodioxin-6-yl)cinnoline-3-carboxylate]
percentage of damage [1]: 0% and 3% | percentage inhibition ([2]; variant Q517M, 1 μM): 38% | percentage inhibition ([2]; variant W392A, 1 μM): 53%

CCn1c(Cn2ccc(C(F)(F)F)n2)cc(=O)c(C(=O)O)c1-c1ccc(Cl)c(Cl)c1 [Compound L, 2-(3,4-dichlorophenyl)-1-ethyl-4-oxo-6-[[3-(trifluoromethyl)pyrazol-1-yl]methyl]pyridine-3-carboxylic acid]
percentage inhibition ([2]; variant Q517F, 0.01 μM): 0% | percentage inhibition ([2]; variant Q517F, 0.075 μM): 17% | percentage inhibition ([2]; variant Q517F, 0.5 μM): 54% | percentage inhibition ([2]; variant Q517H, 0.01 μM): 0% | percentage inhibition ([2]; variant T393V, 0.01 μM): 9% | percentage inhibition ([2]; variant T393V, 0.075 μM): 19% | percentage inhibition ([2]; variant T393V, 0.5 μM): 65% | percentage inhibition ([2]; variant T512C, 0.01 μM): 0% | percentage inhibition ([2]; variant T512C, 0.075 μM): 18% | percentage inhibition ([2]; variant T512C, 0.5 μM): 69% | percentage inhibition ([2]; variant T512D, 0.01 μM): 24% | percentage inhibition ([2]; variant T512D, 0.075 μM): 23% | percentage inhibition ([2]; variant T512D, 0.5 μM): 58% | percentage inhibition ([2]; variant T512G, 0.01 μM): 0% | percentage inhibition ([2]; variant T512G, 0.075 μM): 0% | percentage inhibition ([2]; variant T512G, 0.5 μM): 20% | percentage inhibition ([2]; variant T512I, 0.01 μM): 2% | percentage inhibition ([2]; variant T512I, 0.075 μM): 15% | percentage inhibition ([2]; variant T512I, 0.5 μM): 29% | percentage inhibition ([2]; variant T512N, 0.01 μM): 15% | percentage inhibition ([2]; variant T512N, 0.075 μM): 37% | percentage inhibition ([2]; variant T512N, 0.5 μM): 76% | percentage inhibition ([2]; variant T512Q, 0.01 μM): 3% | percentage inhibition ([2]; variant T512Q, 0.075 μM): 35% | percentage inhibition ([2]; variant T512Q, 0.5 μM): 74% | percentage inhibition ([2]; variant T512R, 0.01 μM): 27% | percentage inhibition ([2]; variant T512R, 0.075 μM): 61% | percentage inhibition ([2]; variant T512R, 0.5 μM): 91% | percentage inhibition ([2]; variant T512V, 0.01 μM): 33% | percentage inhibition ([2]; variant T512V, 0.075 μM): 57% | percentage inhibition ([2]; variant T512V, 0.5 μM): 83% | percentage inhibition ([2]; variant T512W, 0.01 μM): 18% | percentage inhibition ([2]; variant T512W, 0.075 μM): 0% | percentage inhibition ([2]; variant T512W, 0.5 μM): 31% | percentage inhibition ([2]; variant V354A, 0.01 μM): 6% | percentage inhibition ([2]; variant V354A, 0.075 μM): 0% | percentage inhibition ([2]; variant V354A, 0.5 μM): 47% | percentage inhibition ([2]; variant V354E, 0.01 μM): 4% | percentage inhibition ([2]; variant V354E, 0.075 μM): 19% | percentage inhibition ([2]; variant V354E, 0.5 μM): 35% | percentage inhibition ([2]; variant V354L, 0.01 μM): 0% | percentage inhibition ([2]; variant V354L, 0.075 μM): 16% | percentage inhibition ([2]; variant V354L, 0.5 μM): 63% | percentage inhibition ([2]; variant V354T, 0.01 μM): 0% | percentage inhibition ([2]; variant V354T, 0.075 μM): 7% | percentage inhibition ([2]; variant V354T, 0.5 μM): 89% | percentage inhibition ([2]; variant W391L, 0.01 μM): 24% | percentage inhibition ([2]; variant W391L, 0.075 μM): 10% | percentage inhibition ([2]; variant W391L, 0.5 μM): 16% | percentage inhibition ([2]; variant W391M, 0.01 μM): 0% | percentage inhibition ([2]; variant W391M, 0.075 μM): 16% | percentage inhibition ([2]; variant W391M, 0.5 μM): 30% | percentage inhibition ([2]; variant W392C, 0.01 μM): 2% | percentage inhibition ([2]; variant W392C, 0.075 μM): 12% | percentage inhibition ([2]; variant W392C, 0.5 μM): 13% | percentage inhibition ([2]; variant W392D, 0.01 μM): 19% | percentage inhibition ([2]; variant W392D, 0.075 μM): 59% | percentage inhibition ([2]; variant W392D, 0.5 μM): 85% | percentage inhibition ([2]; variant W392G, 0.01 μM): 0% | percentage inhibition ([2]; variant W392G, 0.075 μM): 2% | percentage inhibition ([2]; variant W392G, 0.5 μM): 0% | percentage inhibition ([2]; variant W392M, 0.01 μM): 0% | percentage inhibition ([2]; variant W392M, 0.075 μM): 10% | percentage inhibition ([2]; variant W392M, 0.5 μM): 8% | percentage inhibition ([2]; variant W392S, 0.01 μM): 0% | percentage inhibition ([2]; variant W392S, 0.075 μM): 3% | percentage inhibition ([2]; variant W392S, 0.5 μM): 0% | percentage inhibition ([2]; variant Y511C, 0.01 μM): 0% | percentage inhibition ([2]; variant Y511C, 0.075 μM): 3% | percentage inhibition ([2]; variant Y511C, 0.5 μM): 44% | percentage inhibition ([2]; variant Y511D, 0.01 μM): 20% | percentage inhibition ([2]; variant Y511D, 0.075 μM): 29% | percentage inhibition ([2]; variant Y511D, 0.5 μM): 51% | percentage inhibition ([2]; variant Y511E, 0.01 μM): 0% | percentage inhibition ([2]; variant Y511E, 0.075 μM): 0% | percentage inhibition ([2]; variant Y511E, 0.5 μM): 33% | percentage inhibition ([2]; variant Y511F, 0.01 μM): 48% | percentage inhibition ([2]; variant Y511F, 0.075 μM): 65% | percentage inhibition ([2]; variant Y511F, 0.5 μM): 86% | percentage inhibition ([2]; variant Y511I, 0.01 μM): 21% | percentage inhibition ([2]; variant Y511I, 0.075 μM): 27% | percentage inhibition ([2]; variant Y511I, 0.5 μM): 28% | percentage inhibition ([2]; variant Y511M, 0.01 μM): 0% | percentage inhibition ([2]; variant Y511M, 0.075 μM): 27% | percentage inhibition ([2]; variant Y511M, 0.5 μM): 76% | percentage inhibition ([2]; variant Y511P, 0.01 μM): 10% | percentage inhibition ([2]; variant Y511P, 0.075 μM): 26% | percentage inhibition ([2]; variant Y511P, 0.5 μM): 63% | percentage inhibition ([2]; variant Y511Q, 0.01 μM): 0% | percentage inhibition ([2]; variant Y511Q, 0.075 μM): 6% | percentage inhibition ([2]; variant Y511Q, 0.5 μM): 28% | percentage inhibition ([2]; variant Y511R, 0.01 μM): 15% | percentage inhibition ([2]; variant Y511R, 0.075 μM): 7% | percentage inhibition ([2]; variant Y511R, 0.5 μM): 34% | percentage inhibition ([2]; variant Y511V, 0.01 μM): 0% | percentage inhibition ([2]; variant Y511V, 0.075 μM): 5% | percentage inhibition ([2]; variant Y511V, 0.5 μM): 49% | percentage inhibition ([2]; variant Y511W, 0.01 μM): 11% | percentage inhibition ([2]; variant Y511W, 0.075 μM): 22% | percentage inhibition ([2]; variant Y511W, 0.5 μM): 50%
